Experimental data published in PubChem BioAssay AID328 (DTP/NCI, 2004).
Toxic doses and inconclusive results are not listed. How the source made its calls: active means survival T/C of 150% or more; inactive means T/C below 125% in these data.

System: BDF1 mice, P388 leukemia ip, median survival T/C
Test: NCI In Vivo Anticancer Drug Screen. Data for tumor model P388 Leukemia (intraperitoneal) in B6D2F1 (BDF1) mice
Settings: endpoint: median survival time, higher = longer survival
Summary of the method: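 Transplantable tumour in mice; compound vs vehicle dosing; survival scored; ratio of treated to control reported.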

[1] = dose: 25.0 mg/kg/injection, schedule: Q01DX009 (ip), vehicle: water
[2] = dose: 50.0 mg/kg/injection, schedule: Q01DX009 (ip), vehicle: water

Measured: T/C

Clc1ccc(-c2cc(=[N+]3CCC4(CC3)SSC3(CC[N+](=c5cc(-c6ccc(Cl)cc6)ss5)CC3)S4)ss2)cc1 (stereo not drawn)
inactive: [1] 110 % of control | dose: 25.0 mg/kg/injection, schedule: Q04DX003 (ip), vehicle: water 94 % of control | [2] 121 % of control | dose: 50.0 mg/kg/injection, schedule: Q04DX003 (ip), vehicle: water 101 % of control | dose: 100.0 mg/kg/injection, schedule: Q04DX003 (ip), vehicle: water 92 % of control | dose: 200.0 mg/kg/injection, schedule: Q01DX009 (ip), vehicle: water 121 % of control | dose: 200.0 mg/kg/injection, schedule: Q04DX003 (ip), vehicle: water 97 % of control | dose: 400.0 mg/kg/injection, schedule: Q01DX009 (ip), vehicle: water 121 % of control | dose: 400.0 mg/kg/injection, schedule: Q04DX003 (ip), vehicle: water 98 % of control

Clc1ccc(-n2nnc3cc(Cl)ccc32)c(Cl)c1
inactive: dose: 100.0 mg/kg/injection, schedule: Q01DX009 (ip), vehicle: saline with Tween-80 99 % of control

O=CN1CCCC1C(=O)O (stereo not drawn)
inactive: dose: 6.25 mg/kg/injection, schedule: Q01DX009 (ip), vehicle: water 103 % of control | dose: 12.5 mg/kg/injection, schedule: Q01DX009 (ip), vehicle: water 99 % of control | [1] 96 % of control | [2] 94 % of control

CN1C(=O)N(C)C2(C=Cc3cc([N+](=O)[O-])ccc3O2)N(C)C1=O
inactive: dose: 50.0 mg/kg/injection, schedule: Q01DX009 (ip), vehicle: saline 99 % of control | dose: 100.0 mg/kg/injection, schedule: Q01DX009 (ip), vehicle: saline 101 % of control | dose: 200.0 mg/kg/injection, schedule: Q01DX009 (ip), vehicle: saline 99 % of control

CCCC1=NNc2n[nH]c(=S)n2N1
inactive: dose: 12.5 mg/kg/injection, schedule: Q04DX003 (ip), vehicle: Klucel (hydroxypropylcellulose) (HPC) 100 % of control | dose: 25.0 mg/kg/injection, schedule: Q04DX003 (ip), vehicle: Klucel (hydroxypropylcellulose) (HPC) 91 % of control | dose: 50.0 mg/kg/injection, schedule: Q04DX003 (ip), vehicle: Klucel (hydroxypropylcellulose) (HPC) 91 % of control

CCOC(=O)C1(C)CCCCC1=O (stereo not drawn)
inactive: dose: 100.0 mg/kg/injection, schedule: Q04DX003 (ip), vehicle: saline with Tween-80 95 % of control | dose: 200.0 mg/kg/injection, schedule: Q04DX003 (ip), vehicle: saline with Tween-80 104 % of control | dose: 400.0 mg/kg/injection, schedule: Q04DX003 (ip), vehicle: saline with Tween-80 100 % of control

Cc1cc(C)c(C(=O)CC(=O)c2cccnc2)c(C)c1
inactive: dose: 100.0 mg/kg/injection, schedule: Q01DX009 (ip), vehicle: other 115 % of control | dose: 100.0 mg/kg/injection, schedule: Q04DX003 (ip), vehicle: other 100 % of control | dose: 200.0 mg/kg/injection, schedule: Q01DX009 (ip), vehicle: other 120 % of control | dose: 200.0 mg/kg/injection, schedule: Q04DX003 (ip), vehicle: other 100 % of control | dose: 400.0 mg/kg/injection, schedule: Q01DX009 (ip), vehicle: other 110 % of control | dose: 400.0 mg/kg/injection, schedule: Q04DX003 (ip), vehicle: other 100 % of control

O=C1c2c(O)ccc(O)c2C(=O)c2c(NCCNCCO)ccc(NCCNCCO)c21
inactive: dose: 3.13 mg/kg/injection, schedule: Q01DX009 (ip), vehicle: water 90 % of control
active: dose: 0.78 mg/kg/injection, schedule: Q01DX009 (ip), vehicle: water 270 % of control | dose: 1.56 mg/kg/injection, schedule: Q01DX009 (ip), vehicle: water 181 % of control

Clc1nnc(Nc2ccccc2)c2ccccc12
inactive: dose: 100.0 mg/kg/injection, schedule: Q01DX001 (ip), vehicle: Klucel (hydroxypropylcellulose) (HPC) 100 % of control | dose: 200.0 mg/kg/injection, schedule: Q01DX001 (ip), vehicle: Klucel (hydroxypropylcellulose) (HPC) 91 % of control | dose: 400.0 mg/kg/injection, schedule: Q01DX001 (ip), vehicle: Klucel (hydroxypropylcellulose) (HPC) 104 % of control

C/C(=N\OCc1cc2c(cc1Cl)OCO2)C(=O)O
inactive: dose: 100.0 mg/kg/injection, schedule: Q04DX003 (ip), vehicle: saline sonified 113 % of control | dose: 200.0 mg/kg/injection, schedule: Q04DX003 (ip), vehicle: saline sonified 109 % of control | dose: 400.0 mg/kg/injection, schedule: Q04DX003 (ip), vehicle: saline sonified 109 % of control
